Here are results for six compounds from US20240402196A1 (Exact Sciences Corporation, priority 2018, published 2024).

Test [1] has as its target T1, hemoglobin in stool samples (Homo sapiens, UniProt P68871+P69905). Kind of test: Accelerated shipping simulation (35C 16 hour challenge), hemoglobin % recovery by ELISA.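 Also: stool hemoglobin measured by ELISA before and after thermal-cycler shipping stress, stability given as percent of pre-stress hemoglobin recovered afterwards.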 Also noted: To assess the stability of hemoglobin in stool samples, samples were exposed to simulated shipping stress conditions; from tissue; host or cells: stool samples.
The target in another test is T2, Hb (Homo sapiens, UniProt P68871+P69905).
T2 construct: To assess the stability of hemoglobin in stool samples, samples were exposed to simulated shipping stress conditions; from tissue; host or cells: stool samples
T2 sequence (P69905 2-142 limits assumed): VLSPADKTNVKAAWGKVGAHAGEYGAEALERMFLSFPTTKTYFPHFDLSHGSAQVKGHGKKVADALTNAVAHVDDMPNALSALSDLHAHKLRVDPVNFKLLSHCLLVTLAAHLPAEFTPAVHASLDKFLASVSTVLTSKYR
T2 sequence (P68871 2-147 limits assumed): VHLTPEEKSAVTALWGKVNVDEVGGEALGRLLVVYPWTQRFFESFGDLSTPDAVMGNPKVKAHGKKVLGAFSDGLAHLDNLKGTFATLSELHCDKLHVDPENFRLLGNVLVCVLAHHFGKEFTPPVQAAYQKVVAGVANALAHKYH
Briefly: Appendix B additive screen, % Hb Recovery.

The target in a further test is T3, hemoglobin (Hb) (Homo sapiens, UniProt P68871+P69905).
T3 construct: To assess the stability of hemoglobin in stool samples, samples were exposed to simulated shipping stress conditions; from tissue; host or cells: stool samples
T3 sequence (P69905 2-142 limits assumed): as the sequence (P69905 2-142 limits assumed) above
T3 sequence (P68871 2-147 limits assumed): as the sequence (P68871 2-147 limits assumed) above
Briefly: Appendix B: additives in Hb Collection Buffer, % Hb Recovery.

The target in test [2] is T1, hemoglobin in stool samples. Kind of test: 3-Day shipping simulation, hemoglobin % recovery by ELISA.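 Also: stool samples put through shipping stress in a thermal cycler, hemoglobin quantified by ELISA before and after, stability given as post-stress % of the pre-stress level.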 Also noted: from tissue; host or cells: stool samples.
For test [3] the target is unchanged. Kind of test: Accelerated shipping simulation (35C 16 hour challenge), hemoglobin % recovery by ELISA. Also noted: from tissue; host or cells: stool samples.
Test [4] has the same target. Briefly: 7-Day shipping simulation, hemoglobin % recovery by ELISA. Also noted: from tissue; host or cells: stool samples. How it is done: (§1) To assess the stability of hemoglobin in stool samples, samples were exposed to simulated shipping stress conditions using a thermal cycler. […] An ELISA based detection method is used to determine the hemoglobin concentrations of samples before and after exposure to the shipping simulation. Hemoglobin stability is calculated as a % recovery of hemoglobin after the samples have been exposed to the shipping simulation.
To assess the stability of hemoglobin in stool samples beyond 3 days, a 7-Day shipping simulation was created.

Test [5] shares this target. Kind of test: 3-Day extreme temperature shipping simulation, hemoglobin % recovery by ELISA. Also noted: from tissue; host or cells: stool samples. The protocol: as §1
As an additional challenge, a shipping simulation meant to represent a “worst case” scenario was created using extreme temperatures.

A further test deals with T4, hemoglobin (Homo sapiens, UniProt P68871+P69905).
T4 construct: To assess the stability of hemoglobin in stool samples, samples were exposed to simulated shipping stress conditions; from tissue; host or cells: stool samples
T4 sequence (P69905 2-142 limits assumed): as the sequence (P69905 2-142 limits assumed) above
T4 sequence (P68871 2-147 limits assumed): as the sequence (P68871 2-147 limits assumed) above
Briefly: Appendix B additive screen in Hb Collection Buffer, % Hb Recovery.

Test [6] deals with T1, hemoglobin in stool samples. Briefly: 7-Day modified shipping simulation, hemoglobin % recovery by ELISA. Also noted: from tissue; host or cells: stool samples.
Where [7] appears, read: additive concentrations as in the 8th table.
The mark [8] stands for this setting: additive concentrations as in the 9th table.
Setting [9] is: additive concentrations as in the 10th table.

Each structure is given as a SMILES string. “Also recorded” adds a separate entry of the source.

T1 sequence (P69905 2-142 limits assumed): as the sequence (P69905 2-142 limits assumed) above
T1 sequence (P68871 2-147 limits assumed): as the sequence (P68871 2-147 limits assumed) above

As to `O=C(O)[C@@H](CO)O[C@@H]1O[C@H](CO)[C@@H](O)[C@H](O)[C@@H]1O`, the Results entry in test [1] (additive concentration 0.377 mM) and in test [1] (additive concentration 1 mM) was “No Improvement” in each case.
With `[Ca+2].[Cl-].[Cl-]` [Calcium Chloride], the Results entry at Hb is “Calcium cation shows”; at hemoglobin (Hb) (Additive Concentration 10 mM), “No improvement; also recorded: Improvement in % Hb”; in [2] (Additive Concentration 10 mM), “Calcium cation shows”; in test [2] (additive concentration 5 mM) it was “Calcium cation shows”; in test [2] (additive concentration 10 mM) it was “Calcium cation shows”; in [2] (additive concentration 20 mM), “Calcium cation shows”. Further, the Results result in test [2] (additive concentration 30 mM) is recorded as “Calcium cation shows”; in test [2] (additive concentration 40 mM) it was “Calcium cation shows”; in test [2] (additive concentration 50 mM), “Calcium cation shows”; in [3], “Calcium cation shows; also recorded: Improvement”. The “Notes (Hb stability vs Hb Collection Buffer)” value in test [2] (setting [7]), in test [4] (setting [8]) and in test [5] (setting [9]) was “Improved Hb” in each case.
As for `O=C(O)c1cccnc1` [Vitamin B3], the Results result on hemoglobin is recorded as “No Improvement”.
Turning to `C=Cc1c(C)c2cc3[nH]c(cc4nc(cc5nc(cc1[nH]2)C(C)=C5CCC(=O)[O-])C(CCC(=O)[O-])=C4C)c(C)c3C=C.[Co+2]` [Protoporphyrin IX Co, Protoporphyrin IX Cobalt], the Results entry on hemoglobin (Hb) (Additive Concentration 0.1 uM) is “No Improvement”; on hemoglobin (Hb) (additive concentration 5 uM) it was “Improvement in % Hb”; on hemoglobin (Hb) (additive concentration 10 uM), “Improvement in % Hb”; in test [3] (additive concentration 5 uM) it was “Improvement in % Hb”; in [3] (additive concentration 5 uM, pH 6.5), “Improvement”; in [3] (additive concentration 5 uM, pH 7.4) it was “Improvement”. Besides, the “Notes (Hb stability vs Hb Collection Buffer)” value in test [2] (3-Day and 7-Day Shipping Simulation, concentrations and pH as in the 18th table) is “Improved Hb”; in [2] (concentrations and buffer pH 6.5 or 7.4 as in the 13th table) it was “Improved”; in test [3] (35C 16 hour challenge, concentrations and pH as in the 19th table), “Improved Hb”; in test [4] (concentrations and buffer pH 6.5 or 7.4 as in the 14th table), “Improved”; in test [5] (concentrations and buffer pH 6.5 or 7.4 as in the 15th table), “Improved”; in test [6] (3-6 μM, buffer pH 6.4-7.0 as in the 17th table), “Improved Hb”. Further, the “Hb stability (in words)” value in [2] (3 and 7 day Shipping Simulations, concentrations of 2.5-10 µM, adjusted pH of 6.8) is reported as “increased Hb stability”; in test [3] (35C 16 hour challenge, concentrations of 2.5-10 μM, adjusted pH range of 6.2-7.4) it was “increased Hb stability”; in test [6] (concentrations of 3-6 μM, adjusted pH range of 6.4-7.0), “increased Hb stability”. Moreover, the “Hb stability compared to the Polymedco buffer (in words)” value in [5] (additive in Hb Collection Buffer) was “improved Hb stability compared to the Polymedco buffer”.
`O=NO` [Sodium Nitrite]: at hemoglobin, the Results entry was “No Improvement”.
With `C[N+](C)(C)CC(=O)O` [Betaine], the Results result (on Hb; in [2] (Additive Concentration 1M); in [2] (additive concentration 0.05M); in [2] (additive concentration 0.5M); in [2] (additive concentration 1.25M); in [2] (additive concentration 3M)) was “Betaine shows improvement” throughout. Also, the Results result in [2] (additive concentration 3.5M) is given as “Betaine shows improvement”; in test [2] (additive concentration 3.75M), “Betaine shows improvement”; in test [2] (additive concentration 4M), “Betaine shows improvement”; in [2] (additive concentration 5M) it was “Betaine shows improvement”; in test [2] (additive concentration […]) it was “Betaine shows improvement”; in test [3] (additive concentration 50 uM), “No Improvement”. Also, the Results result is “No Improvement” in test [3] (additive concentration 500 uM), “No Improvement” in [3] (additive concentration 50 mM), “No Improvement” in [3] (additive concentration 96 mM) and “Improvement” in [3] (additive concentration 3.5M). The “Notes (Hb stability vs Hb Collection Buffer)” value in [2] (setting [7]), in test [4] (setting [8]) and in test [5] (setting [9]) was “Improved Hb” throughout.
